# Experimental data from US20020026053A1, “Novel 3-(substituted) -2- indolinones compounds and use thereof as inhibitors of protein kinase activity” (priority 1997, published 2002).
# Where “and” joins values, the source holds several entries; their conditions need not be identical. Equal entries are not always repeated.
# Target: T1, Met receptor (EGFR/Met chimeric cells, EMR) (Homo sapiens, UniProt P08581)
# T1 construct: expressed in transfected cells; the other entry of the earlier key: EGFR (P00533, Epidermal growth factor receptor)
# T1 sequence (P08581 with tags, fused parts or gaps): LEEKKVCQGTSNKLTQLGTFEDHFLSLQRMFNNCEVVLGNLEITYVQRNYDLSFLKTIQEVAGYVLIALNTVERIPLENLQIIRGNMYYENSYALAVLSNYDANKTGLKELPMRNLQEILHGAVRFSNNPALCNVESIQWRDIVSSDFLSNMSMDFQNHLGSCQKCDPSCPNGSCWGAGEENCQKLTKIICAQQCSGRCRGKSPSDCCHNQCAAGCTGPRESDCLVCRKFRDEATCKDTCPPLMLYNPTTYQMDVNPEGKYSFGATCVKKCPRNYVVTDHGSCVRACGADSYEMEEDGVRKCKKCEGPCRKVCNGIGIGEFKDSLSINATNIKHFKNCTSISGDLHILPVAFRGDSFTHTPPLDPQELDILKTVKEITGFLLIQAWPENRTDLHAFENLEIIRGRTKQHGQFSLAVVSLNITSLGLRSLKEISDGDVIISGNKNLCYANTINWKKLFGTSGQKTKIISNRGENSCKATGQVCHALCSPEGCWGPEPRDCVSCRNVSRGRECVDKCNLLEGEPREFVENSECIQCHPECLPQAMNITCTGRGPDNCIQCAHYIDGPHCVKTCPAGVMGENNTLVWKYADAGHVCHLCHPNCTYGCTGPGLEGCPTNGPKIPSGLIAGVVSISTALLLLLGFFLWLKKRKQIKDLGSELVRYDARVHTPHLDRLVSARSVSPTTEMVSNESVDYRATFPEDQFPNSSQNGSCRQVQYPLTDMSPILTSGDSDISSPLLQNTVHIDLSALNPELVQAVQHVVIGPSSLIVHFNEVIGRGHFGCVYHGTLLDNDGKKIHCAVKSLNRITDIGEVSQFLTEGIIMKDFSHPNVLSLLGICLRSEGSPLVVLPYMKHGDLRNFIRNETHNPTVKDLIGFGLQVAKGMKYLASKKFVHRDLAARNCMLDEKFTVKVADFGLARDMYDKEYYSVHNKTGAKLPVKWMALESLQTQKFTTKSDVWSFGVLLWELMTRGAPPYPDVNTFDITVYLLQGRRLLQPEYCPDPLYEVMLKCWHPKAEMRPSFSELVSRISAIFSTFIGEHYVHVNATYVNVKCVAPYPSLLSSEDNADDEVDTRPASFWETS
# Assay: Met Autophosphorylation Assay
# Type: biochemical
# Experimental: Met Autophosphorylation Assay
# This assay determines Met tyrosine kinase activity by analyzing Met protein tyrosine kinase levels on the Met receptor.
# a. HNTG (5× stock solution): Dissolve 23.83 g HEPES and 43.83 g NaCl in about 350 ml dH2O. Adjust pH to 7.2 with HCl or NaOH, add 500 ml glycerol and 10 ml Triton X-100, mix, add dH2O to 1 L total volume. To make 1 L of 1× working solution add 200 ml 5× stock solution to 800 ml dH2O, check and adjust pH as necessary, store at 4° C.
# b. PBS (Dulbecco's Phosphate-Buffered Saline), Gibco Cat. # 450-1300EB (1× solution).
# c. Blocking Buffer: in 500 ml dH2O place 100 g BSA, 12.1 g Tris-pH7.5, 58.44 g NaCl and 10 ml Tween-20, dilute to 1 L total volume.
# d. Kinase Buffer: To 500 ml dH2O add 12.1 g TRIS (pH 7.2), 58.4 g NaCl, 40.7 g MgCl2 and 1.9 g EGTA; bring to 1 L total volume with dH2O.
# e. PMSF (Phenylmethylsulfonyl fluoride), Sigma Cat. # P-7626, to 435.5 mg, add 100% ethanol to 25 ml total volume, vortex.
# f. ATP (Bacterial Source), Sigma Cat. # A-7699, store powder at −20° C.; to make up solution for use, dissolve 3.31 mg in 1 ml dH2O.
# g. RC-20H HRPO Conjugated Anti-Phosphotyrosine, Transduction Laboratories Cat. # E120H.
# h. Pierce 1-Step Turbo™ B-ELISA (3,3′,5,5′-tetramethylbenzidine, Pierce Cat. # 34022.
# i. H2SO4, add 1 ml conc.(18 N) to 35 ml dH2O.
# j. TRIS HCL, Fischer Cat. # BP152-5; to 121.14 g of material, add 600 ml MilliQ H2O, adjust pH to 7.5 (or 7.2) with HCl, bring volume to 1 L with MilliQ H2O.
# k. NaCl, Fischer Cat. # S271-10, make up 5M solution.
# m. Na3VO4, Fischer Cat. # S454-50, to 1.8 g material add 80 ml MilliQ H2O, adjust pH to 10.0 with HCl or NaOH, boil in microwave, cool, check pH, repeat procedure until pH stable at 10.0, add MilliQ H2O to 100 ml total volume, make 1 ml aliquots and store at −80° C.
# n. MgCl2, Fischer Cat. # M33-500, make up 1M solution.
# o. HEPES, Fischer Cat. # BP310-500, to 200 ml MilliQ H2O, add 59.6 g material, adjust pH to 7.5, bring volume to 250 ml total, sterile filter.
# p. Albumin, Bovine (BSA), Sigma Cat. # A-4503, to 30 grams material add sterile distilled water to make total volume of 300 ml, store at 4° C.
# q. TBST Buffer: to approx. 900 ml dH2O in a 1 L graduated cylinder add 6.057 g TRIS and 8.766 g NaCl, when dissolved, adjust pH to 7.2 with HCl, add 1.0 ml Triton X-100 and bring to 1 L total volume with dH2O.
# r. Goat Affinity purified antibody Rabbit IgG (whole molecule), Cappel Cat. # 55641.
# s. Anti h-Met (C-28) rabbit polyclonal IgG antibody, Santa Cruz Chemical Cat. # SC-161.
# t. Transiently Transfected EGFR/Met chimeric cells (EMR) (Komada, et al., Oncogene, 8:2381-2390 (1993).
# u. Sodium Carbonate Buffer, ([…], Fischer Cat. # S495) to 10.6 g material add 800 ml MilliQ H2O, when dissolved adjust pH to 9.6 with NaOH, bring up to 1 L total volume with MilliQ H2O, filter, store at 4° C.
# All of the following steps are conducted at room temperature unless it is specifically indicated otherwise. All ELISA plate washing is by rinsing 4× with TBST.
# This procedure can be performed the night before or immediately prior to the start of receptor capture.
# 1. Quick thaw lysates in a 37° C. waterbath with a swirling motion until the last crystals disappear.
# 2. Lyse cell pellet with 1× HNTG containing 1 mM PMSF. Use 3 ml of HNTG per 15 cm dish of cells. Add ½ the calculated HNTG volume, vortex the tube for 1 min., add the remaining amount of HNTG, vortex for another min.
# 3. Balance tubes, centrifuge at 10,000× g for 10 min at 4° C.
# 4. Pool supernatants, remove an aliquot for protein determination.
# 5. Quick freeze pooled sample in dry ice/ethanol bath. This step is performed regardless of whether lysate will be stored overnight or used immediately following protein determination.
# 6. Perform protein determination using standard bicinchoninic acid (BCA) method (BCA Assay Reagent Kit from Pierce Chemical Cat. # 23225).
# 1. Coat Corning 96 well ELISA plates with 5 μg per well Goat anti-Rabbit antibody in Carbonate Buffer for a total well volume of 50 μl. Store overnight at 4° C. […]
row,Structure (SMILES),Met Kinase % Inhibition (P.130)
1,Cc1c(Br)cc(Br)c2c1C(=Cc1ccc(F)cc1)C(=O)N2 [10717/H05],16.3%
2,Cc1c(Br)cc(Br)c2c1C(=Cc1c[nH]c3ccccc13)C(=O)N2 [10717/H06],30.5%
3,Cc1ccc(C=C2C(=O)Nc3c(Br)cc(Br)c(C)c32)s1 [10717/H07],9.1%
4,Cc1c(Br)cc(Br)c2c1C(=Cc1ccc(Br)cc1)C(=O)N2 [10717/H08],23.0%
5,Cc1c(Br)cc(Br)c2c1C(=Cc1ccc[nH]1)C(=O)N2 [10717/H09],8.8%
6,COc1cccc(O)c1C=C1C(=O)Nc2c(Br)cc(Br)c(C)c21 [10717/H10],52.3%
7,Cc1[nH]c(C=C2C(=O)Nc3c(Br)cc(Br)c(C)c32)c(Br)c1Br [10717/H11],58.2%
8,Cc1c(Br)cc(Br)c2c1C(=Cc1ccc(Br)o1)C(=O)N2 [10726/H05],80.2%
9,Cc1cn(C)cc1C=C1C(=O)Nc2c(Br)cc(Br)c(C)c21 [10726/H06],35.1%
10,Cc1c(Br)cc(Br)c2c1C(=Cc1cc(O)c3c(c1O)CCCC3)C(=O)N2 [10726/H07],80.9%
11,Cc1c(Br)cc(Br)c2c1C(=C1C(=O)Nc3ccc(F)cc31)C(=O)N2 [10726/H08],71.2%
12,Cc1c(Br)cc(Br)c2c1C(=C1C(=O)Nc3ccccc31)C(=O)N2 [10726/H09],68.1%
13,CCc1ccc(C=C2C(=O)Nc3c(Br)cc(Br)c(C)c32)s1 [10726/H10],45.7%
14,COc1ccc(C=C2C(=O)Nc3c(Br)cc(Br)c(C)c32)cc1 [10726/H11],40.8%
15,CCN(CC)c1ccc(C=C2C(=O)Nc3c(Br)cc(Br)c(C)c32)cc1 [10727/H02],55.5%
16,CCc1cc(CC)c(C=C2C(=O)Nc3c(Br)cc(Br)c(C)c32)[nH]1 [10727/H03],49.2%
17,Cc1c(Br)cc(Br)c2c1C(=Cc1cc(Cl)cc(Br)c1O)C(=O)N2 [10727/H04],81.7%
18,Cc1c(Br)cc(Br)c2c1C(=Cc1ccccc1Sc1ccc(Cl)cc1)C(=O)N2 [10727/H05],20.6%
19,Cc1c(Br)cc(Br)c2c1C(=Cc1cc3c(cc1Cl)OCO3)C(=O)N2 [10727/H06],5.2%
20,Cc1c(Br)cc(Br)c2c1C(=Cc1coc3ccccc3c1=O)C(=O)N2 [10727/H07],26.8%
21,Cc1c(Br)cc(Br)c2c1C(=Cc1cccc(C#N)c1)C(=O)N2 [10727/H08],12.3%
22,Cc1c(Br)cc(Br)c2c1C(=Cc1ccc(C#N)cc1)C(=O)N2 [10727/H09],31.1%
23,Cc1c(Br)cc(Br)c2c1C(=Cc1cc(O)ccc1O)C(=O)N2 [10727/H10],89.7%
24,COc1cccc(C=C2C(=O)Nc3c(Br)cc(Br)c(C)c32)c1OC [10727/H11],17.9%
25,COc1ccc(OC)c(C=C2C(=O)Nc3c(Br)cc(Br)c(C)c32)c1 [10728/H02],25.8%
26,COc1cccc(OC)c1C=C1C(=O)Nc2c(Br)cc(Br)c(C)c21 [10728/H03],15.6%
27,COc1cc(C=C2C(=O)Nc3c(Br)cc(Br)c(C)c32)cc(OC)c1 [10728/H04],32.9%

row,Structure (SMILES),Met Kinase % Inhibition (P.130)
1,COc1cc(N(C)C)ccc1C=C1C(=O)Nc2c(Br)cc(Br)c(C)c21 [10728/H05],41.2% and 33.9%
2,Cc1c(Br)cc(Br)c2c1C(=Cc1ccc3c(c1)Cc1ccccc1-3)C(=O)N2 [10728/H06],28.5%
3,Cc1c(Br)cc(Br)c2c1C(=Cc1cccc(C(F)(F)F)c1F)C(=O)N2 [10728/H07],45.8%
4,Cc1c(Br)cc(Br)c2c1C(=Cc1c(F)cccc1C(F)(F)F)C(=O)N2 [10728/H09],30.5%
5,Cc1c(Br)cc(Br)c2c1C(=Cc1ccccc1OCC(=O)O)C(=O)N2 [10728/H10],65.2%
6,COc1cc(C=C2C(=O)Nc3c(Br)cc(Br)c(C)c32)cc2c1OCO2 [10728/H11],8.0%
7,COc1ccc2ccccc2c1C=C1C(=O)Nc2c(Br)cc(Br)c(C)c21 [10729/H02],25.5%
8,COc1ccc(C=C2C(=O)Nc3c(Br)cc(Br)c(C)c32)c2ccccc12 [10729/H03],2.8%
9,CSc1ccc(C=C2C(=O)Nc3c(Br)cc(Br)c(C)c32)cc1 [10729/H04],25.1%
10,Cc1ccsc1C=C1C(=O)Nc2c(Br)cc(Br)c(C)c21 [10729/H05],27.9%
11,Cc1c(Br)cc(Br)c2c1C(=Cc1cccc(Oc3ccccc3)c1)C(=O)N2 [10729/H06],28.4%
12,Cc1c(Br)cc(Br)c2c1C(=Cc1ccccn1)C(=O)N2 [10729/H07],81.0%
13,Cc1c(Br)cc(Br)c2c1C(=Cc1cccnc1)C(=O)N2 [10729/H08],44.0%
14,Cc1c(Br)cc(Br)c2c1C(=Cc1ccncc1)C(=O)N2 [10729/H09],45.1%
15,Cc1c(Br)cc(Br)c2c1C(=Cc1ccc(N3CCCC3)cc1)C(=O)N2 [10729/H10],12.8%
16,Cc1c(Br)cc(Br)c2c1C(=CC1C=CCCC1)C(=O)N2 (centres unmarked) [10729/H11],36.1%
17,COc1ccc(C=C2C(=O)Nc3c(Br)cc(Br)c(C)c32)c(OC)c1OC [10730/H02],32.0%
18,COc1cc(OC)c(OC)cc1C=C1C(=O)Nc2c(Br)cc(Br)c(C)c21 [10730/H03],28.3%
19,COc1cc(C=C2C(=O)Nc3c(Br)cc(Br)c(C)c32)cc(OC)c1OC [10730/H04],37.1%
20,CC(=O)n1cc(C=C2C(=O)Nc3c(Br)cc(Br)c(C)c32)c2ccccc21 [10730/H05],30.7%
21,Cc1c(Br)cc(Br)c2c1C(=Cc1ccc(-c3ccccc3Cl)o1)C(=O)N2 [10730/H07],38.7%
22,Cc1c(Br)cc(Br)c2c1C(=Cc1cc3ccccc3nc1Cl)C(=O)N2 [10730/H08],57.8%
23,COC1CC(C=C2C(=O)Nc3c(Br)cc(Br)c(C)c32)C(OC)O1 (centres unmarked) [10730/H10],24.9%
24,Cc1cc(C=C2C(=O)Nc3c(Br)cc(Br)c(C)c32)oc1C [10730/H11],32.6%
25,CCn1c2ccccc2c2cc(C=C3C(=O)Nc4c(Br)cc(Br)c(C)c43)ccc21 [10731/H02],16.4%
26,Cc1cc2occ(C=C3C(=O)Nc4c(Br)cc(Br)c(C)c43)c(=O)c2cc1C [10731/H03],23.3%
